# Test results taken from patent publication EP4631938A1, “NITROGEN-CONTAINING HETEROCYCLE WITH SEROTONIN RECEPTOR-BINDING ACTIVITY AND CARBOCYCLIC DERIVATIVE” (Shionogi & Co., Ltd, priority 2022, dated 2024).
# Tests used:
# [1] = target: T1, human recombinant 5-HT2A receptor (Homo sapiens, UniProt P28223); assay: Test Example 1: 5-HT2A receptor binding inhibition test ([3H]-Ketanserin; non-specific ligand Serotonin HCl)
# T1 construct: expressed in transfected cells; host or cells: Jump-In HEK cells (membrane preparation)
# Method: The Kd value is calculated when the lot of the cell membrane is changed. 1 mmol/L non-specific binding calculating compound dissolved in DMSO or DMSO is previously dispensed to the microplate by 0.5 µL, and the cell membrane is diluted with an Assay buffer. The radioactive ligand solution is diluted step by step, and counts are checked with a liquid scintillator. The Assay buffer containing diluted cell membranes is dispensed by 50 µL/well into the microplate. The radioactive ligand solution is then dispensed by 50 µL/well into the microplate and the plate is sealed. The microplate is allowed to stand for 1.5 hours at room temperature (25°C). During this time, 50 mmol/L Tris-HCl (pH 7.4) is dispensed by 50 µL/well on the GF/B UniFilter plate and allowed to stand at 4°C for 1 hour or longer. Thereafter, filtration is performed with a Cell Harvester (PerkinElmer). The radioactive ligand solution is dispensed by 10 µL/well into empty wells of the GF/B UniFilter plate. After drying the GF/B UniFilter plate at room temperature, MicroScinti20 is dispensed by 50 µL/well into the GF/B UniFilter plate, and the plate is sealed. GF/B UniFilter plate is allowed to stand at room temperature overnight. The radioactivity of [^3H]-Ketanserin bound to the 5-HT2A receptor is measured using Microbeta2 (PerkinElmer) at a measurement time of 1 min/well. The Saturation curve is drawn from the measured value, and the Kd value is calculated from the slope of the Scatchard Plot.
# A compound solution dissolved in DMSO is dispensed to a microplate by 0.5 µL, and a cell membrane and a hot ligand are each diluted with an Assay buffer. The Assay buffer containing diluted cell membrane is then dispensed by 50 µL/well into the microplate. The radioactive ligand solution is then dispensed by 50 µL/well into the microplate and the plate is sealed. Thereafter, the microplate is allowed to stand at room temperature (25°C) for 1.5 hours. During this time, 50 mmol/L Tris-HCl (pH 7.4) is dispensed by 50 µL/well into the GF/B UniFilter plate and allowed to stand at 4°C for 1 hour or longer. Thereafter, filtration is performed with a Cell Harvester (PerkinElmer). After drying the GF/B UniFilter plate at room temperature, MicroScinti20 is dispensed by 50 µL/well into the GF/B UniFilter plate, and the plate is sealed. GF/B UniFilter plate is allowed to stand at room temperature overnight. The radioactivity of [^3H]-Ketanserin bound to the 5-HT2A receptor is measured using Microbeta2 (PerkinElmer) at a measurement time of 1 min/well. Non-specific binding is calculated from the radioactivity of [^3H]-Ketanserin in the presence of 500 µmol/L Serotonin HCl of unlabeled ligand, and total binding is calculated from the radioactivity of [^3H]-Ketanserin in the absence of the compound of the present invention (Vehicle). Finally, the Ki value is calculated from the dose-response curve.
# (The binding activity of the compound according to the present invention is calculated from the following binding inhibition rate (%).) Inhibition rate (%) = [1−(c−a)/(b−a)] × 100 [formula] • a; average cpm of non-specific binding • b; average cpm of total binding • c; cpm in the presence of the test compound
# The compounds of the present invention were tested essentially as described above.
# [2] = target: T2, human recombinant 5-HT2C receptor (Homo sapiens, UniProt P28335); assay: Test Example 2: 5-HT2C receptor binding inhibition test ([3H]-Mesulergine; non-specific ligand Serotonin HCl)
# T2 construct: expressed in transfected cells; host or cells: Jump-In HEK cells (membrane preparation)
# T2 sequence (P28335 33-458): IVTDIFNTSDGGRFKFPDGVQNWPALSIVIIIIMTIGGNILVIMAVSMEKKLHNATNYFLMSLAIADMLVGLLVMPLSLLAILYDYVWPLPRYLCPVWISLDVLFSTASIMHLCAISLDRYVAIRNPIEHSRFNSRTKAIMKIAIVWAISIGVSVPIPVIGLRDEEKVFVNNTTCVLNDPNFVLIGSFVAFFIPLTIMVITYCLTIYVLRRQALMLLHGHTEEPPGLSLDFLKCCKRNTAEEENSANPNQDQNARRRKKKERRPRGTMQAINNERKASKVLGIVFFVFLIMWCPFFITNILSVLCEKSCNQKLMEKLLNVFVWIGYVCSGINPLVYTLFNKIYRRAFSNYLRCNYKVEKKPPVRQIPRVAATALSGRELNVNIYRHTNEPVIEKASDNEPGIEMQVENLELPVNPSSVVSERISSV
# Summary of the method: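 Filtration binding to membranes bearing human 5-HT2C with [3H]-mesulergine, 2 h at 37°C; non-specific binding defined with 500 µmol/L serotonin HCl, total binding with vehicle. Inhibition rate computed from cpm; Ki derived from dose-response curve, with ligand Kd from Scatchard analysis of saturation binding.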
# [3] = target: T1, human recombinant 5-HT2A receptor; assay: Test Example 1-2: 5-HT2A receptor binding inhibition test ([3H]-Ketanserin; non-specific ligand Ketanserin)
# Summary of the method: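 Membranes expressing the receptor were incubated with [3H]-ketanserin and compound for 1.5 h at 25 °C, then filtered onto plates presoaked in 50 mmol/L Tris-HCl pH 7.4 and scintillation-counted. Non-specific binding was defined with 500 µmol/L unlabeled ketanserin. Ki was taken from dose-response curves, with Kd set for each membrane lot by Scatchard analysis.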
# [4] = target: T2, human recombinant 5-HT2C receptor; assay: Test Example 2-2: 5-HT2C receptor binding inhibition test ([3H]-Mesulergine; non-specific ligand Ketanserin); conditions: non-specific binding with 500 µmol/L Ketanserin, 37°C, 2 hours
# Summary of the method: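 Membranes expressing the receptor were incubated with compound and [3H]-Mesulergine for 2 h at 37 °C, then filtered and counted by scintillation. Non-specific binding was defined with 500 µmol/L Ketanserin. Percent inhibition versus vehicle gave dose-response curves, from which Ki was derived using a Kd from Scatchard saturation analysis.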
# [5] = target: T3, human ether-a-go-go related gene (hERG) channel (Homo sapiens, UniProt Q12809); assay: Test Example 3: hERG test (FluxORII thallium flux, FLIPR, 8000 cells/well); type: cell-based; conditions: CHO cells expressing hERG channel, compound reacted for 10 minutes, 100% inhibition = E-4031 10.3 µmol/L
# T3 construct: expressed in transfected cells; host or cells: CHO cells
# Method: (§1) For the purpose of evaluating risk of an electrocardiogram QT interval prolongation of the compound of the present invention, effects of the compound are studied by evaluating the activity of potassium channel using CHO cells expressing human ether-a-go-go related gene (hERG) channel.
# (§2) Evaluation is performed using a FluxORII Green Potassium Ion Channel Assay kit (Invitrogen: Molecular Probes).
# Cells (8000 cells/well/40 µL) are seeded in a 384 assay plate, and are incubated overnight (37°C, 5% CO2). […]
# (§3) A cell plate is placed on a cell-based kinetic assay system FLIPR (Molecular Devices, LLC.), and the compound is added to the cells so as to have a desired concentration and reacted for 10 minutes. When a mixed solution of potassium and thallium as a stimulator is added thereto, the potassium channel is opened, and thallium that flowed into the cells binds to the fluorescent indicator, so that the intracellular fluorescence signal increases, and the potassium channel current is detected as a fluorescence signal. […] Then, the inhibition rate is calculated from the signal intensity at each concentration. IC50 is calculated from the inhibition rate at each concentration.
# [6] = target: T3, human ether-a-go-go related gene (hERG) channel; assay: Test Example 3-2: hERG test (FluxORII thallium flux, FLIPR, 4000 cells/well); type: cell-based; conditions: CHO cells expressing hERG channel, compound reacted for 10 minutes, 100% inhibition = E-4031 10.3 µmol/L
# Method: as §1, §2
# Cells (4000 cells/well/40 µL) are seeded in a 384 assay plate, and are incubated overnight (37°C, 5% CO2). After replacing the medium with a Wash buffer (lxHBSS, 20 mM HEPES) with a microplate washer, a fluorescent indicator is added to the medium and allowed to incubate (37°C, 5% CO2) for 1 hour for incorporation of the fluorescent indicator into cells.
# as §3
# [7] = [3H]-Ketanserin, non-specific binding with 500 µmol/L Serotonin HCl, room temperature (25°C), 1.5 hours, read-out: h 5-HT2A Ki
# [8] = [3H]-Mesulergine, non-specific binding with 500 µmol/L Serotonin HCl, 37°C, 2 hours
# [9] = [3H]-Ketanserin, non-specific binding with 500 µmol/L Ketanserin, room temperature (25°C), 1.5 hours, read-out: h 5-HT2A Ki
# [10] = human serotonin 5-HT2C receptor binding activity
# T3 sequence (Q12809 whole entry): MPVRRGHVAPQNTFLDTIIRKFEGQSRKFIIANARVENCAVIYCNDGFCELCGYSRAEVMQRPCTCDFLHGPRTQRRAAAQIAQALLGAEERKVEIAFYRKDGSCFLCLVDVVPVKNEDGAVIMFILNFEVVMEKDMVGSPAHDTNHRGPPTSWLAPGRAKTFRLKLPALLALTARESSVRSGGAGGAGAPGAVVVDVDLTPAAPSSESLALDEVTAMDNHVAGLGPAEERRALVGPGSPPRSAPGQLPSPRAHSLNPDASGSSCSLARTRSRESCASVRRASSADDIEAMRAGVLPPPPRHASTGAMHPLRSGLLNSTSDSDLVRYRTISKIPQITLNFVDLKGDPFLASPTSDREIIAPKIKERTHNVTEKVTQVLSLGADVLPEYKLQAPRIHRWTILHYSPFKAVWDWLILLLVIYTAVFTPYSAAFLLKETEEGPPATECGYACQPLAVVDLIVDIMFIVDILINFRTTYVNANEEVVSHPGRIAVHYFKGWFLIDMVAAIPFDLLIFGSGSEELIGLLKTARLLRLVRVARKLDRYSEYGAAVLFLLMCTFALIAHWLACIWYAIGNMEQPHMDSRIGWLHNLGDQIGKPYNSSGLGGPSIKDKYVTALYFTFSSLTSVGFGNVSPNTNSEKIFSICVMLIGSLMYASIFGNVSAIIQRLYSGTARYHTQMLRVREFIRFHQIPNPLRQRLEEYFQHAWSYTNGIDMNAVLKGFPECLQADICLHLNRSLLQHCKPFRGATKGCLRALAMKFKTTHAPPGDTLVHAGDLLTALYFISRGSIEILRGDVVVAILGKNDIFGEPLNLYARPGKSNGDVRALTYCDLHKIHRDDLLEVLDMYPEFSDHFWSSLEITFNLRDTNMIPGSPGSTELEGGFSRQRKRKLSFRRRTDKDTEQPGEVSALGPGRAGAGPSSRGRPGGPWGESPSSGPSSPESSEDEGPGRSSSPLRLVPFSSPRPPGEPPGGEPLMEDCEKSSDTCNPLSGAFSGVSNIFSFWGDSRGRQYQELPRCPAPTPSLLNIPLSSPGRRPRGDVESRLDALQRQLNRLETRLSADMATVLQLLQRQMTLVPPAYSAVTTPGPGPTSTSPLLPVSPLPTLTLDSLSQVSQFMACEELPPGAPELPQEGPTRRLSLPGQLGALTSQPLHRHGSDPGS
# T1 sequence (P28223 whole entry): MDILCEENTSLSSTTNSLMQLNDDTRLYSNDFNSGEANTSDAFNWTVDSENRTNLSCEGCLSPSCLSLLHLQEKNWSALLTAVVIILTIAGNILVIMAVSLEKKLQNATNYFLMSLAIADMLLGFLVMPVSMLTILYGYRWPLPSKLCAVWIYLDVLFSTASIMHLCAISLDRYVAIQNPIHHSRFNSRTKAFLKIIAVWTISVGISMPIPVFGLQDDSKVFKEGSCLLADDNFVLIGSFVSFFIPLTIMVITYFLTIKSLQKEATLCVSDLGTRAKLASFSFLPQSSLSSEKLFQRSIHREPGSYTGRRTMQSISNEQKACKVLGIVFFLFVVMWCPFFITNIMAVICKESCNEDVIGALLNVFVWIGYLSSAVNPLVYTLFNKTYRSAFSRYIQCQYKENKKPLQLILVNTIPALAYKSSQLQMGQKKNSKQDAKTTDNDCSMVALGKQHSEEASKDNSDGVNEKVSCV
"Ki [1, 7]","Ki [2, 8]","Ki [3, 9]","Ki [2, 10]",Structure (SMILES),IC50 [6],further results
0.447 nM,1.44 nM,–,–,Cn1ncc(Br)c1-c1cc(Nc2ccc(C(F)(F)F)cc2)ccc1OCCO [Compound I-001],–,–
0.597 nM,11.4 nM,–,–,Cn1ncc(Br)c1-c1cc(Nc2ccc(F)cc2)ccc1OCCO [Compound I-003],–,–
0.42 nM,0.387 nM,–,–,Cn1ncc(Br)c1-c1cc(Nc2ccc(C(F)(F)F)cn2)ccc1OCCO [Compound I-004],–,–
0.301 nM,1.08 nM,–,–,Cn1ncc(Br)c1-c1cc(Nc2ncc(C(F)(F)F)s2)ccc1OCCO [Compound I-005],–,–
0.548 nM,14.9 nM,–,–,Cn1ncc(Br)c1-c1cc(Nc2ccc(C(F)(F)F)nn2)ccc1OCCO [Compound I-007],–,–
0.337 nM,8.7 nM,–,–,Cn1nccc1-c1cc(Nc2ncc(C(F)(F)F)cc2F)ccc1OCCO [Compound I-009],–,–
–,–,–,–,Cn1ncc(Br)c1-c1cc(Nc2ncc(C(F)(F)F)cc2F)ncc1OCCO [Compound I-062],–,Ki [3]: 0.286 nM; Ki [4]: 0.366 nM; IC50 [5]: > 52000 nM
–,–,–,–,Cc1cnn(C)c1-c1cc(Nc2ncc(C(F)(F)F)cc2F)ncc1OCCO [Compound I-063],–,Ki [3]: 0.337 nM; Ki [4]: 2.09 nM; IC50 [5]: > 52000 nM
–,–,0.316 nM,0.748 nM,Cn1ncc(Br)c1-c1cc(Nc2ncc(C(F)(F)F)cc2F)ncc1OC(F)(F)CO [Compound I-228],50600 nM,–
–,–,0.465 nM,0.786 nM,Cc1nc(C)c(-c2nc(Nc3ccc(C(F)(F)F)cc3)c(F)cc2OCCO)c(C)n1 [Compound I-267],> 52000 nM,–
–,–,0.4 nM,3.92 nM,Cc1nc(C)c(-c2cc(Nc3ccc(-c4ccc(F)cc4)cn3)cnc2O[C@H](C)CO)c(C)n1 [Compound I-271],> 52000 nM,–
–,–,0.952 nM,4.57 nM,CNC(=O)c1ccc(F)c(-c2cc(Nc3ncc(C(F)(F)F)cc3F)ncc2OCCO)c1F [Compound I-359],> 52000 nM,–

Structure (SMILES),"Ki [1, 7]","Ki [2, 8]","Ki [3, 9]","Ki [2, 10]",IC50 [6],further results
Cn1ncc(Br)c1-c1cc(Nc2ccc(C(F)(F)F)nc2)ccc1OCCO [I-002],–,19.2 nM,–,–,–,Ki [1]: 0.375 nM
